Measured values taken from publication PMC6954543, “A window-of-opportunity trial of the CXCR1/2 inhibitor reparixin in operable HER-2-negative breast cancer” (Breast Cancer Research : BCR, 2020).

Tests used:
[1] = system: ALDH1, CD24 and CD44 transcripts; experiment: CSC markers in core biopsies by RT-PCR; format: in vivo, human; conditions: 14 patients
Procedure: Core biopsy samples were placed in RNAlater, suspended in 700 μL of TRIzol® LS Reagent (Invitrogen) and homogenized using Bullet Blender (Next Advance Inc.). Next, RNA was extracted using the miRNeasy mini kit (Qiagen) and processed with the QIACube (Qiagen) automated low-throughput sample prep system. Thereafter, the isolated RNAs were reverse transcribed to cDNA (High Capacity cDNA Reverse Transcription Kit, ABI) and subsequently underwent quantitative RT-PCR (qRT-PCR) using 7900HT Fast Real-Time PCR System (ABI) to detect transcripts of markers associated with CSC (ALDH1, CD44, CD24, Akt, and PI3K), EMT (TWIST1, FOXC2, SNAIL1, SNAIL2, TG2, and ZEB1), epithelial cells (KRT19 and EpCAM), and leukocytes (CD45). We used average delta Ct (dCT) < 2 as a cutoff to determine the relative gene expression level. Since normal tissue was not available to act as the normalizer, we used GAPDH as the endogenous control (dCT = CTtarget − CTendogenous control).

CXCR1/2+ cells = system: CXCR1/2+ cells; parameters: method as in PMID 22996693; conditions: preclinical models; cited from earlier work
CD18+ PMNs = experiment: Adhesion molecule expression on peripheral blood PMNs by flow cytometry; format: in vivo, human; conditions: after 21 days of treatment vs baseline; p < 0.05
Procedure: The expression of adhesion molecules (CD11b, CD18, and CD66b) on PMNs was investigated. Typically, 100 µL of whole blood were incubated with 10nM CXCL8 for 10 minutes at room temperature to upregulate the expression of adhesion molecules. Untreated whole blood samples were included as control. We measured the percentage of PMNs that expressed CD11b, CD18, and CD66b as well as the Mean Fluorescence of Intensity (MFI) of each adhesion molecule as a measure of expression density by flow cytometry.

[2] = Pharmacokinetics of single-agent oral reparixin in plasma; format: in vivo, human
Procedure: Samples for pharmacokinetics (PK) were collected at selected sites in consenting patients. Venous blood samples (6 mL) were collected from a forearm vein at times 0.0, 0.25, 0.5, 1.0, 2.0, 4.0, 6.0, and 8.0 h following reparixin administration on days 1 and 21. The blood samples were immediately centrifuged at 4 °C, 1200 relative centrifugal force (RCF), for 10 min, and the plasma collected. Each plasma sample was divided into 2 aliquots and stored in 2 pre-labeled polypropylene screw-capped tubes (about 2 mL each) at − 20 °C until analysis. The analysis was performed at the Dompé Analytical Development Laboratories in L’Aquila, Italy.

monocytes and PMNs = experiment: Intracellular cytokine production by monocytes and PMNs by flow cytometry; format: in vivo, human; conditions: without or with activation by LPS and/or CXCL8; data not shown
Procedure: Intracellular cytokine production by peripheral blood monocytes and PMNs were assessed using a modification of previously published procedure. Briefly, monocytes and PMNs in whole blood were activated with CXCL8 (10nM), LPS ([…]), and LPS+CXCL8 for 2 hours at 37 °C before the addition of Brefeldin A (BFA) for another 3 hours to block the transportation of the intracellular cytokines from the Golgi to the cell surface. Thereafter, red blood cells were lysed with 1×FACSTM Lysing Solution (BD Biosciences) and the membrane of activated cells permeabilized with 1×FACSTM Perm 2 solution (BD Biosciences). Next, the activated monocytes and PMNs were stained with fluorochrome-conjugated specific antibodies to IL-1β, TNF-α, CXCL8, and IL-6 before the samples were analyzed by flow cytometry. The percentages of monocytes and PMNs that produced IL-1β, TNF-α, CXCL8, and IL-6 were recorded.

CD31 = CD31 staining of core biopsies by IHC; format: in vivo, human; conditions: day 21 (16/20 at baseline)
Procedure: All IHC analyses and scoring for extent (0 to 4) and intensity (0 to 3) were performed at the Houston Memorial Hermann Pathology laboratory as previously described. After antigen retrieval (Tris-Cl, pH 9.0), paraffin-embedded sections of sample tumors were incubated for 1 h at room temperature with the following antibodies: anti-human CXCR1 (rabbit polyclonal to CXCR1 - C-terminal, ab137351; Abcam, Cambridge, MA), anti-human CD31 (clone JC70A, #IS610; Dako, Glostrup, Denmark), anti-human p62 (clone SQSTM1/p62, # 5114; Cell Signaling), anti-human AKT (rabbit polyclonal to pan-AKT, # ab8805; Abcam), anti-human FAK (clone pY861, #44-626G; Invitrogen, Qiagen, Carlsbad, CA), anti-human phospho-AKT (clone Ser473 (D9E), #4060; Cell Signaling), anti-human phospho-FAK (clone Y397, #ab4803; Abcam), and anti-human LC3B (clone D11, #3868; Cell Signaling). For the evaluation of extent, the following semi-quantitative score method (0 to 4) was used: 0, no positive cells; 1, 1–25%; 2, 26–50%; 3, 51–75%; and 4, 76–100%.

CXCR1+ cells = experiment: CXCR1+ cell evaluation in core biopsy samples by flow cytometry; format: in vivo, human
Description: Patients underwent core biopsies at baseline (day − 14 to 0) and at the completion of therapy (day 21). Three to five ≥ 18-gage needle biopsies were taken to measure the changes in CSC populations and pathway markers. If not performed at the completion of treatment, a core biopsy was taken on the day of surgery by the same technique. A sample of the surgically resected tumor tissue was also taken. Additional analyses were directed to determine CXCR1 (PerCP/Cy5.5 mouse anti-human CD181 (CXCR1; BioLegend, San Diego, CA) and cell lineages using the following antibodies: APC mouse anti-human CD44 (BD Bioscience, San Jose, CA; catalog #559942), PE-Cy7 mouse anti-human CD24 (#561646), PE mouse anti-human CD2 (#555327), PE mouse anti-human CD31 (#555446), PE mouse anti-human CD3 (#555333), PE mouse anti-human CD18 (#555924), PE mouse anti-human CD16 (#555407), PE mouse anti-human CD19 (#555413), and PE mouse anti-human CD45 (#555483).

[3] = female, human, in vivo, po, 1000 mg

CC(C)Cc1ccc([C@@H](C)C(=O)NS(C)(=O)=O)cc1 [reparixin]
patients negative for CSC at both baseline and day 21 [1]: 6 patients
patients with CSC (transcripts for CD44 but not CD24) at both baseline and day 21 [1]: Five
ALDH1 transcripts at day 21 ([1]; 1/14 expressed ALDH1 at baseline): all patients were negative
recruitment of CXCR1/2+ cells from the bloodstream to visceral sites (CXCR1/2+ cells): reduce
percentage of CD18+ PMNs following in vitro stimulation with CXCL8 (CD18+ PMNs): decreased
Tmax [2, 3]: 1 h
half-life [2, 3]: ~2 h
bioavailability following oral administration ([2]; human, in vivo, po): high bioavailability
systemic exposure (Cmax and AUClast), change from day 1 to day 21 ([2]; human, in vivo, po, 1000 mg): did not change
accumulation upon multiple dosing ([2]; oral 1000 mg t.i.d. for 21 days): no accumulation
production of inflammatory cytokines (CXCL8, IL-6, TNF-α, IL-1β) by monocytes and PMNs (monocytes and PMNs): No statistically significant difference
patients with value of 0 for CD31, extent and intensity (CD31): 11/15
patients with CXCR1+ tumor cells decreased at day 21 (CXCR1+ cells): 7/13
patients with all viable CXCR1+ cells reduced at day 21 vs baseline (CXCR1+ cells): 6/13
patients with parallel decrease in both CXCR1+ cell populations (CXCR1+ cells): 4/13
